Assay results published in the NIST ThermoML archive (doi:10.1016/j.fluid.2018.04.007).
± gives the expanded uncertainty stated by the source. One block for each compound: values may come before it.

Columns and labels:
[1] = relative permittivity at various frequencies (dimensionless); xn = mol fraction of the nth substance listed; settings: 101 kPa, Liquid, Frequency=1 MHz, Parallel plate capacitor, x1 = 1
[2] = refractive index (Na D-line) (dimensionless); xn = mol fraction of the nth substance listed; settings: 101 kPa, Liquid, Standard Abbe refractometry, x1 = 1
[3] = refractive index (Na D-line) (dimensionless); settings: 101 kPa, Liquid, Standard Abbe refractometry
[4] = relative permittivity at various frequencies (dimensionless); settings: 101 kPa, Liquid, Frequency=1 MHz, Parallel plate capacitor
[5] = 101 kPa, Liquid, Vibrating tube method

Compound: CCCCO [butan-1-ol] + CCCCCCN
relative permittivity ([1]; 293.15 K): 18.192 ± 0.73
relative permittivity ([1]; 298.15 K): 17.545 ± 0.71
relative permittivity ([1]; 303.15 K): 16.933 ± 0.7
refractive index ([2]; 293.15 K): 1.39931 ± 0.00033
refractive index ([2]; 298.15 K): 1.39733 ± 0.00033
refractive index ([2]; 303.15 K): 1.39529 ± 0.00033

Compound: CCCCCCCO [heptan-1-ol] + CCCCCCN
relative permittivity ([1]; 293.15 K): 12.019 ± 0.6
relative permittivity ([1]; 298.15 K): 11.504 ± 0.59
relative permittivity ([1]; 303.15 K): 11.014 ± 0.57
refractive index ([2]; 293.15 K): 1.42425 ± 0.00033
refractive index ([2]; 298.15 K): 1.42235 ± 0.00033
refractive index ([2]; 303.15 K): 1.42047 ± 0.00033

Compound: CCCCCCN [1-hexanamine]
refractive index ([3]; 293.15 K): 1.41808 ± 0.00033
refractive index ([3]; 298.15 K): 1.41563 ± 0.00033
refractive index ([3]; 303.15 K): 1.41321 ± 0.00033
relative permittivity ([4]; 293.15 K): 3.964 ± 0.37
relative permittivity ([4]; 298.15 K): 3.904 ± 0.37
relative permittivity ([4]; 303.15 K): 3.846 ± 0.36
mass density ([5]; 293.15 K): 764.43 ± 1.8 kg/m3
mass density ([5]; 298.15 K): 760.19 ± 1.8 kg/m3
mass density ([5]; 303.15 K): 755.9 ± 1.8 kg/m3

Compound: CCCCO [butan-1-ol]
refractive index ([3]; 293.15 K): 1.39931 ± 0.00033
refractive index ([3]; 298.15 K): 1.39733 ± 0.00033
refractive index ([3]; 303.15 K): 1.39529 ± 0.00033
relative permittivity ([4]; 293.15 K): 18.192 ± 0.73
relative permittivity ([4]; 298.15 K): 17.545 ± 0.71
relative permittivity ([4]; 303.15 K): 16.933 ± 0.7
mass density ([5]; 293.15 K): 809.85 ± 1.9 kg/m3
mass density ([5]; 298.15 K): 806.06 ± 1.9 kg/m3
mass density ([5]; 303.15 K): 802.22 ± 1.9 kg/m3

Compound: CCCCCCCO [heptan-1-ol]
refractive index ([3]; 293.15 K): 1.42425 ± 0.00033
refractive index ([3]; 298.15 K): 1.42235 ± 0.00033
refractive index ([3]; 303.15 K): 1.42047 ± 0.00033
relative permittivity ([4]; 293.15 K): 12.019 ± 0.6
relative permittivity ([4]; 298.15 K): 11.504 ± 0.59
relative permittivity ([4]; 303.15 K): 11.014 ± 0.57
mass density ([5]; 293.15 K): 822.37 ± 2 kg/m3
mass density ([5]; 298.15 K): 818.9 ± 2 kg/m3
mass density ([5]; 303.15 K): 815.37 ± 2 kg/m3

Now from value to compound:

refractive index ([3]; 293.15 K): 1.32862 ± 0.00033
refractive index ([3]; 298.15 K): 1.32654 ± 0.00033
refractive index ([3]; 303.15 K): 1.32439 ± 0.00033
relative permittivity ([4]; 293.15 K): 33.569 ± 0.97
relative permittivity ([4]; 298.15 K): 32.619 ± 0.96
relative permittivity ([4]; 303.15 K): 31.652 ± 0.95
mass density ([5]; 293.15 K): 791.63 ± 1.9 kg/m3
mass density ([5]; 298.15 K): 786.95 ± 1.9 kg/m3
mass density ([5]; 303.15 K): 782.22 ± 1.9 kg/m3
Compound: CO [methanol]

relative permittivity ([1]; 293.15 K): 33.569 ± 0.97
relative permittivity ([1]; 298.15 K): 32.619 ± 0.96
relative permittivity ([1]; 303.15 K): 33.569 ± 0.97
refractive index ([2]; 293.15 K): 1.32862 ± 0.00033
refractive index ([2]; 298.15 K): 1.32654 ± 0.00033
refractive index ([2]; 303.15 K): 1.32439 ± 0.00033
Compound: CO [methanol] + CCCCCCN

refractive index ([3]; 293.15 K): 1.40985 ± 0.00033
refractive index ([3]; 298.15 K): 1.40793 ± 0.00033
refractive index ([3]; 303.15 K): 1.4059 ± 0.00033
relative permittivity ([4]; 293.15 K): 15.701 ± 0.68
relative permittivity ([4]; 298.15 K): 15.102 ± 0.67
relative permittivity ([4]; 303.15 K): 14.536 ± 0.65
mass density ([5]; 293.15 K): 814.66 ± 2 kg/m3
mass density ([5]; 298.15 K): 811.03 ± 1.9 kg/m3
mass density ([5]; 303.15 K): 807.35 ± 1.9 kg/m3
Compound: CCCCCO [pentan-1-ol]

refractive index ([3]; 293.15 K): 1.38514 ± 0.00033
refractive index ([3]; 298.15 K): 1.38306 ± 0.00033
refractive index ([3]; 303.15 K): 1.38102 ± 0.00033
relative permittivity ([4]; 293.15 K): 21.15 ± 0.78
relative permittivity ([4]; 298.15 K): 20.449 ± 0.77
relative permittivity ([4]; 303.15 K): 19.784 ± 0.76
mass density ([5]; 293.15 K): 803.66 ± 1.9 kg/m3
mass density ([5]; 298.15 K): 799.68 ± 1.9 kg/m3
mass density ([5]; 303.15 K): 795.66 ± 1.9 kg/m3
Compound: CCCO [propan-1-ol]

relative permittivity ([1]; 293.15 K): 21.15 ± 0.78
relative permittivity ([1]; 298.15 K): 20.449 ± 0.77
relative permittivity ([1]; 303.15 K): 19.784 ± 0.76
refractive index ([2]; 293.15 K): 1.38514 ± 0.00033
refractive index ([2]; 298.15 K): 1.38306 ± 0.00033
refractive index ([2]; 303.15 K): 1.38102 ± 0.00033
Compound: CCCO [propan-1-ol] + CCCCCCN

relative permittivity ([1]; 293.15 K): 15.701 ± 0.68
relative permittivity ([1]; 298.15 K): 15.102 ± 0.67
relative permittivity ([1]; 303.15 K): 14.536 ± 0.65
refractive index ([2]; 293.15 K): 1.40985 ± 0.00033
refractive index ([2]; 298.15 K): 1.40793 ± 0.00033
refractive index ([2]; 303.15 K): 1.4059 ± 0.00033
Compound: CCCCCO [pentan-1-ol] + CCCCCCN
